Experiments:
[1] = biological target: Ribosomal protein S6 kinase alpha-2 (Homo sapiens) (UniProt Q15349); assay: Residual activity of RPS6KA2 at 10 uM by microplate scintillation counting
[2] = biological target: Tyrosine-protein kinase SYK (Homo sapiens) (UniProt P43405); assay: Residual activity of SYK at 10 uM by microplate scintillation counting
[3] = test system: Epidermal growth factor receptor (Homo sapiens), P00533 [L858R,T790M]; assay: Residual activity of EGFR T790M/L858R mutant at 10 uM by microplate scintillation counting
[4] = biological target: Ribosomal protein S6 kinase alpha-3 (Homo sapiens) (UniProt P51812); assay: Residual activity of RPS6KA3 at 0.1 uM by microplate scintillation counting
[5] = biological target: Cyclin-dependent kinase 1/cyclin B1 (Homo sapiens) (UniProt P06493+P14635); assay: Residual activity of CDK1/CyclinB1 at 1 uM by microplate scintillation counting; assay type: protein-complex assay
[6] = biological target: T1, Tyrosine-protein kinase ITK/TSK (Homo sapiens) (UniProt Q08881); assay: Residual activity of ITK at 0.1 uM by microplate scintillation counting
T1 sequence (whole entry): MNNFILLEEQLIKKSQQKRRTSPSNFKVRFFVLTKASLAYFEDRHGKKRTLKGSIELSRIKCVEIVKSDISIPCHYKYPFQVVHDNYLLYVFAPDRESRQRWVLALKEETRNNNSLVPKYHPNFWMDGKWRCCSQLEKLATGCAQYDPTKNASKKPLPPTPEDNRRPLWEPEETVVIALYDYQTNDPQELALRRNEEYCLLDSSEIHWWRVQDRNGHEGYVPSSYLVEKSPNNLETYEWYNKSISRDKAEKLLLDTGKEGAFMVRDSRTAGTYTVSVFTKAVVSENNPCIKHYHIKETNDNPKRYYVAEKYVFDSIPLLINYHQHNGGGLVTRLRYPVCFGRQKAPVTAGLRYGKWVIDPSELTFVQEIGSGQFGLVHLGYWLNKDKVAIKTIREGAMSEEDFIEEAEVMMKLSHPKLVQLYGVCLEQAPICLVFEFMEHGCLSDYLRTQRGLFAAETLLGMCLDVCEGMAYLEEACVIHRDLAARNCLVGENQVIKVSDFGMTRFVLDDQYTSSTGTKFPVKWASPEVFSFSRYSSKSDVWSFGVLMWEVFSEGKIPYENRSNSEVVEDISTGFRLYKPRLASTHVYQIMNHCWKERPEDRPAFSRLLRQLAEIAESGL

[7] = biological target: Serine/threonine-protein kinase PAK 4 (Homo sapiens) (UniProt O96013); assay: Residual activity of PAK4 at 10 uM by microplate scintillation counting
[8] = biological target: Ribosomal protein S6 kinase alpha-3 (Homo sapiens) (UniProt P51812); assay: Residual activity of RPS6KA3 at 1 uM by microplate scintillation counting
[9] = biological target: T2, Eukaryotic elongation factor 2 kinase (Homo sapiens) (UniProt O00418); assay: Residual activity of EEF2K at 1 uM by microplate scintillation counting
T2 sequence (whole entry): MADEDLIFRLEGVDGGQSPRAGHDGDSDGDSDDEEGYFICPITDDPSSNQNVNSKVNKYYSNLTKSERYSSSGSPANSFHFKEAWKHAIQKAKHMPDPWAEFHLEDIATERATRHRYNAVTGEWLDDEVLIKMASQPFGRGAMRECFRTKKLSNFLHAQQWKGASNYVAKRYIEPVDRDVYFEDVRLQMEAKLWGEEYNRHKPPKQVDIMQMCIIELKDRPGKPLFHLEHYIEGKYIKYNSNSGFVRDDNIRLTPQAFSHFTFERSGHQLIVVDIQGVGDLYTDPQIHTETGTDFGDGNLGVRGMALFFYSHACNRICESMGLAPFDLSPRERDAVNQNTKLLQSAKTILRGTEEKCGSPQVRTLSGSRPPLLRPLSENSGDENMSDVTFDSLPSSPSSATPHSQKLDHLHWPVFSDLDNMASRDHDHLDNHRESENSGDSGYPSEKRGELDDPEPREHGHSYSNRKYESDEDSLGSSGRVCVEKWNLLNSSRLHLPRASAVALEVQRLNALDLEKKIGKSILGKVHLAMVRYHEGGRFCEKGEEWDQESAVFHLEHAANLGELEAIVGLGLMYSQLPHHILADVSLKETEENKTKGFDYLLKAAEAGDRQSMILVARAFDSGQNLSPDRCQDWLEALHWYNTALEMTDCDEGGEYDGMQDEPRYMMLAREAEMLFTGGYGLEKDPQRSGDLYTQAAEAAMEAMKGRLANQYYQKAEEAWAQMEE

[10] = biological target: Platelet-derived growth factor receptor beta (Homo sapiens, UniProt P09619); assay: Residual activity of PDGFRbeta at 10 uM by microplate scintillation counting
[11] = biological target: Activated CDC42 kinase 1 (Homo sapiens) (UniProt Q07912); assay: Residual activity of ACK1 at 0.1 uM by microplate scintillation counting
[12] = biological target: Focal adhesion kinase 1 (Homo sapiens) (UniProt Q05397); assay: Residual activity of FAK at 1 uM by microplate scintillation counting
[13] = biological target: Proto-oncogene tyrosine-protein kinase Src (Homo sapiens) (UniProt P12931); assay: Residual activity of SRC at 1 uM by microplate scintillation counting
[14] = biological target: Casein kinase I isoform alpha (Homo sapiens) (UniProt P48729); assay: Residual activity of CK1alpha1 at 0.1 uM by microplate scintillation counting
[15] = biological target: T3, Serine/threonine-protein kinase VRK1 (Homo sapiens) (UniProt Q99986); assay: Residual activity of VRK1 at 1 uM by microplate scintillation counting
T3 sequence (whole entry): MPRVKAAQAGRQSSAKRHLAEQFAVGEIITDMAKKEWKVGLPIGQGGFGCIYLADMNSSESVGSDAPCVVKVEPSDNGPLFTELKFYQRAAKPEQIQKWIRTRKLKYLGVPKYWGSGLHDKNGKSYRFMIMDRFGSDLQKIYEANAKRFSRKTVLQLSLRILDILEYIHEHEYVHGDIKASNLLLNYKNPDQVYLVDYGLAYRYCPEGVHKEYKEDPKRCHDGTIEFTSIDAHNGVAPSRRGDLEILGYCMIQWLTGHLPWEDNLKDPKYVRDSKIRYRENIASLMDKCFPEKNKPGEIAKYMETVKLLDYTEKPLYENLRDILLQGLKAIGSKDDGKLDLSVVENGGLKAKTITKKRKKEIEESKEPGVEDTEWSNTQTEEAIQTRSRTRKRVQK

[16] = test system: Epidermal growth factor receptor (Homo sapiens), P00533 [L858R,T790M]; assay: Residual activity of EGFR T790M/L858R at 1 uM by microplate scintillation counting

Sequence of Serine/threonine-protein kinase PAK 4 (Homo sapiens) (O96013 whole entry, looked up): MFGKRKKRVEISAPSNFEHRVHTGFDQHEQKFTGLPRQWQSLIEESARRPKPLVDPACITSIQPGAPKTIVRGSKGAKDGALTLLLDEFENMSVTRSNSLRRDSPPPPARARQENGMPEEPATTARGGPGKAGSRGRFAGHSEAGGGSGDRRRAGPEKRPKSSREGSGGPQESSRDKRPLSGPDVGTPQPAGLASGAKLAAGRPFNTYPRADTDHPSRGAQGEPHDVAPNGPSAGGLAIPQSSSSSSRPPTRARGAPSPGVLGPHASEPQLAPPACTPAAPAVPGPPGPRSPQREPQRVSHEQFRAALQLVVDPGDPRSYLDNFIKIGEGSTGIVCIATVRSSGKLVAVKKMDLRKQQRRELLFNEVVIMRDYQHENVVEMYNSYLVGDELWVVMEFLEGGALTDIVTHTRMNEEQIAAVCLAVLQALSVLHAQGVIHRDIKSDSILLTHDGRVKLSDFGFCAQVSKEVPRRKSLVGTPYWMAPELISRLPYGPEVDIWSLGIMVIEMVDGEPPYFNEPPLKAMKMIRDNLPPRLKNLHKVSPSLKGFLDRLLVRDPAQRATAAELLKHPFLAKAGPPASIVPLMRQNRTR
Sequence of Proto-oncogene tyrosine-protein kinase Src (Homo sapiens) (P12931 2-536 limits assumed): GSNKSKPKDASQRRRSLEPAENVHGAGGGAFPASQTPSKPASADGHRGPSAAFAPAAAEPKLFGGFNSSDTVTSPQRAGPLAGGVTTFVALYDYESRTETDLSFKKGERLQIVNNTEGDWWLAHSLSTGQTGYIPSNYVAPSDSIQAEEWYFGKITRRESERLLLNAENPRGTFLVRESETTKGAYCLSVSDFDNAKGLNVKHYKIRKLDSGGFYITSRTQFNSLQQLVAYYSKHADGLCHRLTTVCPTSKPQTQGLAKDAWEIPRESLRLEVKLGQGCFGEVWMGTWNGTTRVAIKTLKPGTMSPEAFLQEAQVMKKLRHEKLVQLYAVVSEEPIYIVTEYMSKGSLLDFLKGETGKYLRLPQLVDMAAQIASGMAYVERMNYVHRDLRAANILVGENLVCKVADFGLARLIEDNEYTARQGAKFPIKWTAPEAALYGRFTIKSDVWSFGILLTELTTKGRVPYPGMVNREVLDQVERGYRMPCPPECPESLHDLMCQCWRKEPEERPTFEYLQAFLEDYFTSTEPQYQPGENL
Sequence of Casein kinase I isoform alpha (Homo sapiens) (P48729 2-337 limits assumed): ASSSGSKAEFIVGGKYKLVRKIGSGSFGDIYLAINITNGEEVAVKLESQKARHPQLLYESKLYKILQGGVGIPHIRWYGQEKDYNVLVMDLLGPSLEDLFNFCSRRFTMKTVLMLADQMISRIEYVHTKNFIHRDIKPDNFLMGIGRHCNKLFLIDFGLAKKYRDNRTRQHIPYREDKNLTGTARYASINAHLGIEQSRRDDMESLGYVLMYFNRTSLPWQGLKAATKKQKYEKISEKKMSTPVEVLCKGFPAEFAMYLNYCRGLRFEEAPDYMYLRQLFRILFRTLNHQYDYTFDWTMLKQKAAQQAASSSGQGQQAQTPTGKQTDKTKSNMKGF
Sequence of Activated CDC42 kinase 1 (Homo sapiens) (Q07912 whole entry, looked up): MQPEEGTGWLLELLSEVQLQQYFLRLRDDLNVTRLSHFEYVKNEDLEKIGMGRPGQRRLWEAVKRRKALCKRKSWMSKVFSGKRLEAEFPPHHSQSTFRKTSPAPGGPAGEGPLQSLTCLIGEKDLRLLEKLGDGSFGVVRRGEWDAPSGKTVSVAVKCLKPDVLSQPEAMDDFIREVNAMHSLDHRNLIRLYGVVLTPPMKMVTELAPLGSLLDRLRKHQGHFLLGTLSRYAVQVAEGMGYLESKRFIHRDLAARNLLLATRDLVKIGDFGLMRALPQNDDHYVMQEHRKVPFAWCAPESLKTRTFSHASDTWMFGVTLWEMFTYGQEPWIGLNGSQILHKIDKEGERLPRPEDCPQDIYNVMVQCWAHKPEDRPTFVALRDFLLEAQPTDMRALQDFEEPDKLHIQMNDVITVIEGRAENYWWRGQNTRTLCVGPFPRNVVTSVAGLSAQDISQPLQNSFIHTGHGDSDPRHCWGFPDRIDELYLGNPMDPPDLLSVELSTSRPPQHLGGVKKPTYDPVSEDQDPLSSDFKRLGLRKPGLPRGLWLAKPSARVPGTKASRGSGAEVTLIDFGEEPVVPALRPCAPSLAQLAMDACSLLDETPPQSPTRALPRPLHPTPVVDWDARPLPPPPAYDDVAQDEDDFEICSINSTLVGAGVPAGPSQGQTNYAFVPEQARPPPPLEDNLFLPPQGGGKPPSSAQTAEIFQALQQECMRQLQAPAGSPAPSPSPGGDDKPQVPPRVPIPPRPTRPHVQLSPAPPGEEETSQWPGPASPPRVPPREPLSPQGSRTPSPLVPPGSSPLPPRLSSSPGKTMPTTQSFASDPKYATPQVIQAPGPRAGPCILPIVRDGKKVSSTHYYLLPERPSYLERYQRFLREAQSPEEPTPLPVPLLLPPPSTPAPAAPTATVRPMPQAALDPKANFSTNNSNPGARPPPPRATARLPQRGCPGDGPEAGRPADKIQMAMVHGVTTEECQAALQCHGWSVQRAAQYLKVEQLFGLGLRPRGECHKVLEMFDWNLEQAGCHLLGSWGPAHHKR
Sequence of Cyclin-dependent kinase 1/cyclin B1 (Homo sapiens) (P06493 whole entry, looked up): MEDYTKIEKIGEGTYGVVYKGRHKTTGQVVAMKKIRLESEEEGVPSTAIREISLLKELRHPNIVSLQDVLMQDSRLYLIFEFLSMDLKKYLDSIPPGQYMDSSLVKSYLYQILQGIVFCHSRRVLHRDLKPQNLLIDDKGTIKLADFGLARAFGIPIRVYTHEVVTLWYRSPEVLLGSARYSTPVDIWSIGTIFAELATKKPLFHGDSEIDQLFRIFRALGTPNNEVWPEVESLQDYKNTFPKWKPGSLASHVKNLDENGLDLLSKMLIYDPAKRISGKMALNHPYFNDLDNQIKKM
Sequence of Cyclin-dependent kinase 1/cyclin B1 (Homo sapiens) (P14635 whole entry, looked up): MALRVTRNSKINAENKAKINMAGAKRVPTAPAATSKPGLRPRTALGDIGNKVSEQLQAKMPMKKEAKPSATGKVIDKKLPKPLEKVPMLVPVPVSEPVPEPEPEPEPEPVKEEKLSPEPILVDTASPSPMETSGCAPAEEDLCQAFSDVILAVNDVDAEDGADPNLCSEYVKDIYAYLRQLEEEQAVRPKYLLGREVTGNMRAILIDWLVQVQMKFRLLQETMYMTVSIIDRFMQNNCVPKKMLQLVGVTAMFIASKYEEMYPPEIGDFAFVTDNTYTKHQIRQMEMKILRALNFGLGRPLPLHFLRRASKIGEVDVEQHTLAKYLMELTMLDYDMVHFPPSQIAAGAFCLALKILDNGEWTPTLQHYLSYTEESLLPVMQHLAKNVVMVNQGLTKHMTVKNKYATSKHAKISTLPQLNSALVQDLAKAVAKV
Sequence of Platelet-derived growth factor receptor beta (P09619 whole entry): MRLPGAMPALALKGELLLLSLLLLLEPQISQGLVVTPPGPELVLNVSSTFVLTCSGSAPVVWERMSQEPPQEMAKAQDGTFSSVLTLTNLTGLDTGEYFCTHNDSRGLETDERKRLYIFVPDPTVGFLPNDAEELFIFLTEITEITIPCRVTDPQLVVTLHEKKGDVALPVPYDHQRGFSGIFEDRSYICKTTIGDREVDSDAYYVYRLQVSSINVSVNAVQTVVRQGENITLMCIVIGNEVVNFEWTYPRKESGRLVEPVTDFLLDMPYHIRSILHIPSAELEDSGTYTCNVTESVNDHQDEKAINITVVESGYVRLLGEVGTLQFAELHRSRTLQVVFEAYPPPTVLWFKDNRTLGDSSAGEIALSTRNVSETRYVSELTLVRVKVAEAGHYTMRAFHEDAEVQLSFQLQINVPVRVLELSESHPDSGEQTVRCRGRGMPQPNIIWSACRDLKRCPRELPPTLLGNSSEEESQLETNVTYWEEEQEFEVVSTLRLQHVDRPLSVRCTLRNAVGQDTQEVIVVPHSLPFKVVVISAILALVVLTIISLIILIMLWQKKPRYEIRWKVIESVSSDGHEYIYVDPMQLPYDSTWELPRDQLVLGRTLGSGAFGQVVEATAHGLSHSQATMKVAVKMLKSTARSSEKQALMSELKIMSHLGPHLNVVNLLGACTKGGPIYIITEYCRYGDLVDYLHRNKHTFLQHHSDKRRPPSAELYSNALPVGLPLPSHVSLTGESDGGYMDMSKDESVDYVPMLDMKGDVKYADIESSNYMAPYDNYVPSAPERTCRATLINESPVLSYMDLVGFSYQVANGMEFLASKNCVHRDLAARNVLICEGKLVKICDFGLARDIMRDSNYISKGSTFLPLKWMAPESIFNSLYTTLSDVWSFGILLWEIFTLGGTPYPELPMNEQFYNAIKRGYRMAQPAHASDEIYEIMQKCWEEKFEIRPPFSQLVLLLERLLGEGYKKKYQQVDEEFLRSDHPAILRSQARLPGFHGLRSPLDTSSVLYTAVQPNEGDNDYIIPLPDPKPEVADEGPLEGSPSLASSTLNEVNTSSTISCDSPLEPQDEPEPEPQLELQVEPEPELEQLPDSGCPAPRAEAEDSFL

Row | residual activity [1] [%] | residual activity [2] [%] | residual activity [3] [%] | residual activity [4] [%] | residual activity [5] [%] | residual activity [6] [%] | residual activity [7] [%] | residual activity [8] [%] | residual activity [9] [%] | residual activity [10] [%] | residual activity [11] [%] | residual activity [12] [%] | residual activity [13] [%] | residual activity [14] [%] | residual activity [15] [%] | residual activity [16] [%] | Structure (SMILES)
1 | 81 | 162 | 147 | 94 | 81 | 98 | 91 | 93 | 86 | 43 | 105 | 98 | 95 | 102 | 95 | 100 | COc1cc2c(Oc3ccc(-c4nc5ccccc5s4)cc3)ncnc2cc1OCCCN1CCCC1
2 | 39 | 63 | 70 | 95 | 99 | 107 | 50 | 95 | 90 | 33 | 87 | 104 | 89 | 93 | 98 | 99 | COc1cc2c(Oc3ccc(-c4nc5ccccc5s4)cc3F)ncnc2cc1OCCCN1CCN(C)CC1
3 | 44 | 146 | 167 | 93 | 89 | 99 | 55 | 85 | 82 | 21 | 96 | 93 | 87 | 101 | 103 | 103 | COc1cc2c(Oc3ccc(-c4nc5ccccc5s4)cc3)ncnc2cc1OCCCN1CCN(C)CC1
